Reference: ChEMBL document CHEMBL1151464 (2008)
In brackets after ≈: the same amount, converted by molar mass.

Experiments:
Type in all cases: functional
Pseudomonas aeruginosa [1] = assay: Antibacterial activity against Pseudomonas aeruginosa isolate 328 after 24 hrs by CLSI microdilution method; conditions: isolate 328, 24 h
Pseudomonas aeruginosa [2] = assay: Antibacterial activity against Pseudomonas aeruginosa isolate 358 after 24 hrs by CLSI microdilution method; conditions: isolate 358, 24 h
Pseudomonas aeruginosa [3] = assay: Antibacterial activity against Pseudomonas aeruginosa isolate 322 after 24 hrs by CLSI microdilution method; conditions: isolate 322, 24 h
Pseudomonas aeruginosa [4] = assay: Antibacterial activity against Pseudomonas aeruginosa isolate 350 after 24 hrs by CLSI microdilution method; conditions: isolate 350, 24 h
Pseudomonas aeruginosa [5] = assay: Antibacterial activity against Pseudomonas aeruginosa isolate 338 after 24 hrs by CLSI microdilution method; conditions: isolate 338, 24 h
Acinetobacter baumannii [6] = assay: Antibacterial activity against Acinetobacter baumannii isolate 931 after 24 hrs by CLSI microdilution method; conditions: isolate 931, 24 h
Acinetobacter baumannii [7] = assay: Antibacterial activity against Acinetobacter baumannii isolate 900 after 24 hrs by CLSI microdilution method; conditions: isolate 900, 24 h
Acinetobacter baumannii [8] = assay: Antibacterial activity against Acinetobacter baumannii isolate 930 after 24 hrs by CLSI microdilution method; conditions: isolate 930, 24 h
Acinetobacter baumannii [9] = assay: Antibacterial activity against Acinetobacter baumannii isolate 914 after 24 hrs by CLSI microdilution method; conditions: isolate 914, 24 h
Pseudomonas aeruginosa [10] = assay: Antibacterial activity against Pseudomonas aeruginosa isolate 376 after 24 hrs by CLSI microdilution method; conditions: isolate 376, 24 h
Pseudomonas aeruginosa [11] = assay: Antibacterial activity against Pseudomonas aeruginosa isolate 379 expressing VIM2 beta-lactamase after 24 hrs by CLSI microdilution method; conditions: isolate 379, 24 h
Pseudomonas aeruginosa [12] = assay: Antibacterial activity against Pseudomonas aeruginosa isolate 368 after 24 hrs by CLSI microdilution method; conditions: isolate 368, 24 h
Acinetobacter baumannii [13] = assay: Antibacterial activity against Acinetobacter baumannii isolate 901 after 24 hrs by CLSI microdilution method; conditions: isolate 901, 24 h
Acinetobacter baumannii [14] = assay: Antibacterial activity against Acinetobacter baumannii isolate 915 after 24 hrs by CLSI microdilution method; conditions: isolate 915, 24 h
Acinetobacter baumannii [15] = assay: Antibacterial activity against Acinetobacter baumannii isolate 894 after 24 hrs by CLSI microdilution method; conditions: isolate 894, 24 h
Pseudomonas aeruginosa [16] = assay: Antibacterial activity against Pseudomonas aeruginosa isolate 363 after 24 hrs by CLSI microdilution method; conditions: isolate 363, 24 h
Pseudomonas aeruginosa [17] = assay: Antibacterial activity against Pseudomonas aeruginosa isolate 361 after 24 hrs by CLSI microdilution method; conditions: isolate 361, 24 h
Acinetobacter baumannii [18] = assay: Antibacterial activity against Acinetobacter baumannii isolate 899 after 24 hrs by CLSI microdilution method; conditions: isolate 899, 24 h
Acinetobacter baumannii [19] = assay: Antibacterial activity against Acinetobacter baumannii isolate 917 after 24 hrs by CLSI microdilution method; conditions: isolate 917, 24 h
Pseudomonas aeruginosa [20] = assay: Antibacterial activity against Pseudomonas aeruginosa isolate 348 after 24 hrs by CLSI microdilution method; conditions: isolate 348, 24 h
Acinetobacter baumannii [21] = assay: Antibacterial activity against Acinetobacter baumannii isolate 924 after 24 hrs by CLSI microdilution method; conditions: isolate 924, 24 h
Pseudomonas aeruginosa [22] = assay: Antibacterial activity against Pseudomonas aeruginosa isolate 329 after 24 hrs by CLSI microdilution method; conditions: isolate 329, 24 h
Acinetobacter baumannii [23] = assay: Antibacterial activity against Acinetobacter baumannii isolate 922 after 24 hrs by CLSI microdilution method; conditions: isolate 922, 24 h
Acinetobacter baumannii [24] = assay: Antibacterial activity against Acinetobacter baumannii isolate 895 after 24 hrs by CLSI microdilution method; conditions: isolate 895, 24 h
Pseudomonas aeruginosa [25] = assay: Antibacterial activity against Pseudomonas aeruginosa isolate 352 after 24 hrs by CLSI microdilution method; conditions: isolate 352, 24 h
Pseudomonas aeruginosa [26] = assay: Antibacterial activity against Pseudomonas aeruginosa isolate 371 after 24 hrs by CLSI microdilution method; conditions: isolate 371, 24 h
Acinetobacter baumannii [27] = assay: Antibacterial activity against Acinetobacter baumannii isolate 898 after 24 hrs by CLSI microdilution method; conditions: isolate 898, 24 h
Acinetobacter baumannii [28] = assay: Antibacterial activity against Acinetobacter baumannii isolate 906 after 24 hrs by CLSI microdilution method; conditions: isolate 906, 24 h
Pseudomonas aeruginosa [29] = assay: Antibacterial activity against Pseudomonas aeruginosa isolate 357 after 24 hrs by CLSI microdilution method; conditions: isolate 357, 24 h
Pseudomonas aeruginosa [30] = assay: Antibacterial activity against Pseudomonas aeruginosa isolate 334 after 24 hrs by CLSI microdilution method; conditions: isolate 334, 24 h
Acinetobacter baumannii [31] = assay: Antibacterial activity against Acinetobacter baumannii isolate 908 after 24 hrs by CLSI microdilution method; conditions: isolate 908, 24 h
Pseudomonas aeruginosa [32] = assay: Antibacterial activity against Pseudomonas aeruginosa isolate 364 after 24 hrs by CLSI microdilution method; conditions: isolate 364, 24 h
Pseudomonas aeruginosa [33] = assay: Antibacterial activity against Pseudomonas aeruginosa isolate 331 after 24 hrs by CLSI microdilution method; conditions: isolate 331, 24 h
Acinetobacter baumannii [34] = assay: Antibacterial activity against Acinetobacter baumannii isolate 909 after 24 hrs by CLSI microdilution method; conditions: isolate 909, 24 h
Pseudomonas aeruginosa [35] = assay: Antibacterial activity against Pseudomonas aeruginosa isolate 367 after 24 hrs by CLSI microdilution method; conditions: isolate 367, 24 h
Pseudomonas aeruginosa [36] = assay: Antibacterial activity against Pseudomonas aeruginosa isolate 359 after 24 hrs by CLSI microdilution method; conditions: isolate 359, 24 h
Pseudomonas aeruginosa [37] = assay: Antibacterial activity against Pseudomonas aeruginosa isolate 369 after 24 hrs by CLSI microdilution method; conditions: isolate 369, 24 h
Acinetobacter baumannii [38] = assay: Antibacterial activity against Acinetobacter baumannii isolate 911 after 24 hrs by CLSI microdilution method; conditions: isolate 911, 24 h
Pseudomonas aeruginosa [39] = assay: Antibacterial activity against Pseudomonas aeruginosa isolate 354 after 24 hrs by CLSI microdilution method; conditions: isolate 354, 24 h
Pseudomonas aeruginosa [40] = assay: Antibacterial activity against Pseudomonas aeruginosa isolate 374 after 24 hrs by CLSI microdilution method; conditions: isolate 374, 24 h
Pseudomonas aeruginosa [41] = assay: Antibacterial activity against Pseudomonas aeruginosa isolate 320 after 24 hrs by CLSI microdilution method; conditions: isolate 320, 24 h
Acinetobacter baumannii [42] = assay: Antibacterial activity against Acinetobacter baumannii isolate 882 after 24 hrs by CLSI microdilution method; conditions: isolate 882, 24 h
Pseudomonas aeruginosa [43] = assay: Antibacterial activity against Pseudomonas aeruginosa isolate 346 after 24 hrs by CLSI microdilution method; conditions: isolate 346, 24 h
Acinetobacter baumannii [44] = assay: Antibacterial activity against Acinetobacter baumannii isolate 891 after 24 hrs by CLSI microdilution method; conditions: isolate 891, 24 h

## C[C@@H](O)[C@H]1C(=O)N2C(C(=O)O)=C(S[C@@H]3CN[C@H](C(=O)N(C)C)C3)[C@H](C)[C@H]12 [MEROPENEM]
Pseudomonas aeruginosa [1]
  MIC: 2 µg/mL (≈ 5.22 µM)
Pseudomonas aeruginosa [2]
  MIC: 16 µg/mL (≈ 41.7 µM)
Pseudomonas aeruginosa [3]
  MIC: 2 µg/mL (≈ 5.22 µM)
Pseudomonas aeruginosa [4]
  MIC: 2 µg/mL (≈ 5.22 µM)
Pseudomonas aeruginosa [5]
  MIC: 1 µg/mL (≈ 2.61 µM)
Acinetobacter baumannii [6]
  MIC: 2 µg/mL (≈ 5.22 µM)
Acinetobacter baumannii [7]
  MIC: 0.5 µg/mL (≈ 1.3 µM)
Acinetobacter baumannii [8]
  MIC: 0.25 µg/mL (≈ 0.652 µM)
Acinetobacter baumannii [9]
  MIC: 0.5 µg/mL (≈ 1.3 µM)
Pseudomonas aeruginosa [10]
  MIC: 16 µg/mL (≈ 41.7 µM)
Pseudomonas aeruginosa [11]
  MIC: 256 µg/mL (≈ 668 µM)
Pseudomonas aeruginosa [12]
  MIC: 0.25 µg/mL (≈ 0.652 µM)
Acinetobacter baumannii [13]
  MIC: 8 µg/mL (≈ 20.9 µM)
Acinetobacter baumannii [14]
  MIC: 0.5 µg/mL (≈ 1.3 µM)
Acinetobacter baumannii [15]
  MIC: 2 µg/mL (≈ 5.22 µM)
Pseudomonas aeruginosa [16]
  MIC: 1 µg/mL (≈ 2.61 µM)
Pseudomonas aeruginosa [17]
  MIC: 0.25 µg/mL (≈ 0.652 µM)
Acinetobacter baumannii [18]
  MIC: 32 µg/mL (≈ 83.4 µM)
Acinetobacter baumannii [19]
  MIC: 0.5 µg/mL (≈ 1.3 µM)
Pseudomonas aeruginosa [20]
  MIC: 0.25 µg/mL (≈ 0.652 µM)
Acinetobacter baumannii [21]
  MIC: 0.5 µg/mL (≈ 1.3 µM)
Pseudomonas aeruginosa [22]
  MIC: 0.5 µg/mL (≈ 1.3 µM)
Acinetobacter baumannii [23]
  MIC: 1 µg/mL (≈ 2.61 µM)
Acinetobacter baumannii [24]
  MIC: 8 µg/mL (≈ 20.9 µM)
Pseudomonas aeruginosa [25]
  MIC: 2 µg/mL (≈ 5.22 µM)
Pseudomonas aeruginosa [26]
  MIC: 16 µg/mL (≈ 41.7 µM)
Acinetobacter baumannii [27]
  MIC: 8 µg/mL (≈ 20.9 µM)
Acinetobacter baumannii [28]
  MIC: 1 µg/mL (≈ 2.61 µM)
Pseudomonas aeruginosa [29]
  MIC: 0.5 µg/mL (≈ 1.3 µM)
Pseudomonas aeruginosa [30]
  MIC: 1 µg/mL (≈ 2.61 µM)
Acinetobacter baumannii [31]
  MIC: 2 µg/mL (≈ 5.22 µM)
Pseudomonas aeruginosa [32]
  MIC: 0.12 µg/mL (≈ 0.313 µM)
Pseudomonas aeruginosa [33]
  MIC: 0.12 µg/mL (≈ 0.313 µM)
Acinetobacter baumannii [34]
  MIC: 1 µg/mL (≈ 2.61 µM)
Pseudomonas aeruginosa [35]
  MIC: 0.25 µg/mL (≈ 0.652 µM)
Pseudomonas aeruginosa [36]
  MIC: 0.12 µg/mL (≈ 0.313 µM)
Pseudomonas aeruginosa [37]
  MIC: 2 µg/mL (≈ 5.22 µM)
Acinetobacter baumannii [38]
  MIC: 16 µg/mL (≈ 41.7 µM)
Pseudomonas aeruginosa [39]
  MIC: 0.12 µg/mL (≈ 0.313 µM)
Pseudomonas aeruginosa [40]
  MIC: 0.5 µg/mL (≈ 1.3 µM)
Pseudomonas aeruginosa [41]
  MIC: 2 µg/mL (≈ 5.22 µM)
Acinetobacter baumannii [42]
  MIC: 1 µg/mL (≈ 2.61 µM)
Pseudomonas aeruginosa [43]
  MIC: 1 µg/mL (≈ 2.61 µM)
Acinetobacter baumannii [44]
  MIC: 4 µg/mL (≈ 10.4 µM)
